Source: ChEMBL document CHEMBL1146896, “Synthesis and monoamine transporter affinity of 2beta-carbomethoxy-3beta-(4'-p-substituted phenyl)-piperidine analogs of cocaine” (Bioorg Med Chem Lett, 2006)

Columns and labels:
[1] = biological target: Sodium-dependent dopamine transporter (Rattus norvegicus, UniProt P23977); test: Displacement of [3H]beta-CIT from DAT in rat caudate homogenate
[2] = biological target: Monoamine transporters; serotonin & dopamine (Rattus norvegicus) (UniProt P31652+P23977); test: Selectivity for SERT over DAT; type: protein assay
[3] = biological target: Monoamine transporters; Norepinephrine & serotonin (Rattus norvegicus) (UniProt P31652+Q9WTR4); test: Selectivity for SERT over NET; type: protein assay
[4] = biological target: Sodium-dependent serotonin transporter (Rattus norvegicus, UniProt P31652); test: Displacement of [3H]cyanoimipramine from SERT in rat cerebral cortex homogenate; type: tissue-based
[5] = biological target: Norepinephrine transporter (Rattus norvegicus, UniProt Q9WTR4); test: Displacement of [3H]nisoxetine from NET in rat cerebral cortex; type: tissue-based
Sequence of Norepinephrine transporter (Q9WTR4 whole entry): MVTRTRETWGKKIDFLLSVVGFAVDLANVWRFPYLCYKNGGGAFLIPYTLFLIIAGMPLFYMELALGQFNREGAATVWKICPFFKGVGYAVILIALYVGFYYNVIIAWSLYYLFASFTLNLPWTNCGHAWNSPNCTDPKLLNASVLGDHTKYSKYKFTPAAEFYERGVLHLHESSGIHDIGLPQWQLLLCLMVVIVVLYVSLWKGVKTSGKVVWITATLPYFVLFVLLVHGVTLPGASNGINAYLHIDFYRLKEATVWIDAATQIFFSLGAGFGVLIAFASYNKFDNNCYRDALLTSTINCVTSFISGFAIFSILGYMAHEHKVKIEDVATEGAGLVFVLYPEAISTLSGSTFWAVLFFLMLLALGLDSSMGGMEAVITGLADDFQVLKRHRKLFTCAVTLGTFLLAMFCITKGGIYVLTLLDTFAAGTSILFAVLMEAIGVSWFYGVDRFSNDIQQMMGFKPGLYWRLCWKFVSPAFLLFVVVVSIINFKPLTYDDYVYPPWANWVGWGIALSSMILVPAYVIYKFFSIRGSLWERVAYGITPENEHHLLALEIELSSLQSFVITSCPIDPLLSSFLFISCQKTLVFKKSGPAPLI

Sequence of Sodium-dependent serotonin transporter (P31652 whole entry): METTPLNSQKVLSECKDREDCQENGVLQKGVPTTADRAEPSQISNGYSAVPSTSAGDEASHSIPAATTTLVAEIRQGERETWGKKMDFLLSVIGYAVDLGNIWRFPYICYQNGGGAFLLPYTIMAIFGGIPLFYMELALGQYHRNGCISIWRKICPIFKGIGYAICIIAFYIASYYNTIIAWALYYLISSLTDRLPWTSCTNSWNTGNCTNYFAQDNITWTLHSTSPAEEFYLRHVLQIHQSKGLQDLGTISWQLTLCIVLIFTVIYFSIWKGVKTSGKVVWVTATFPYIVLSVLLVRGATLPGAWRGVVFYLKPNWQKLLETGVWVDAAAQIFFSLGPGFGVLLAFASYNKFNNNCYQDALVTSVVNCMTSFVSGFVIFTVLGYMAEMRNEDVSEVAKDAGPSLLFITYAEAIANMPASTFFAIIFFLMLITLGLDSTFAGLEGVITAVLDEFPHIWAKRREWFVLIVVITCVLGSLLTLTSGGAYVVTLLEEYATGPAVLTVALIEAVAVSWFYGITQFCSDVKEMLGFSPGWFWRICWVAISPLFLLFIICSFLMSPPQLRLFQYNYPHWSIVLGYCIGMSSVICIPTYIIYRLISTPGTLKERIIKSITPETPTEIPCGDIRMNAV
Sequence of Sodium-dependent dopamine transporter (P23977 whole entry): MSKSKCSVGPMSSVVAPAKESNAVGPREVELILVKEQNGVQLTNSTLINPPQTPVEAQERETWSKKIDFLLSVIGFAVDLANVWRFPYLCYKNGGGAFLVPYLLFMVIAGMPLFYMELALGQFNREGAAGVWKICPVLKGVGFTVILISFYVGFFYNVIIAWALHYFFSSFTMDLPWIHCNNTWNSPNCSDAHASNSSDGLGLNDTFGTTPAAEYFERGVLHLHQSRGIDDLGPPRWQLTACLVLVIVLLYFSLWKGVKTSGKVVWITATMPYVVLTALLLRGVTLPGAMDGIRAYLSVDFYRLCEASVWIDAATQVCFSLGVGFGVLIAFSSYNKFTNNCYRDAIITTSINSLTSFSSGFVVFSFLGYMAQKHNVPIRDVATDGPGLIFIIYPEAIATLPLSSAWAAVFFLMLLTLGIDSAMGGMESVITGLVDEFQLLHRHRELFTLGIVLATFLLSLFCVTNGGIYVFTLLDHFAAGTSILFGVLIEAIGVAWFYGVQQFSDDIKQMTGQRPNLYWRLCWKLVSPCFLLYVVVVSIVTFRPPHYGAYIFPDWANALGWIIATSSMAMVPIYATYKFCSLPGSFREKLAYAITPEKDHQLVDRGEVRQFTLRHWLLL
Sequence of Monoamine transporters; serotonin & dopamine (Rattus norvegicus) (P23977 whole entry, looked up): as the sequence (P23977 whole entry) above
Sequence of Monoamine transporters; serotonin & dopamine (Rattus norvegicus) (P31652 whole entry, looked up): as the sequence (P31652 whole entry) above

Structure (SMILES)	Ki [1] [µM]	Ratio Ki [2]	Ratio Ki [3]	Ki [4] [µM]	Ki [5] [µM]
COC(=O)[C@@H]1CN(C)CC[C@@H]1c1ccc(-c2ccco2)cc1	0.205	11.1	> 2700	0.0185	> 50
COC(=O)[C@@H]1CN(C)CC[C@@H]1c1ccc(-c2cccs2)cc1	≥ 5	> 55	> 551	0.0908	> 50
COC(=O)[C@@H]1CN(C)CC[C@@H]1c1ccc(C=O)cc1	> 10	5.8	17.3	1.73	> 30
COC(=O)[C@@H]1CN(C)CC[C@@H]1c1ccc(I)cc1	0.195	11.2	59.9	0.167	–
COC(=O)[C@@H]1CN(C)CC[C@@H]1c1ccc(/C=C\I)cc1	0.123	15.6	> 3800	0.0079	> 30
COC(=O)[C@H]1[C@@H](c2ccc(I)cc2)C[C@@H]2CC[C@H]1N2C	0.00096	2.1	6.1	–	0.0028
COC(=O)[C@@H]1CN(C)CC[C@@H]1c1ccc(-c2nccs2)cc1 (racemic) [listing 1 of 2 here]	> 10	–	–	> 5	> 20
COC(=O)[C@@H]1CN(C)CC[C@@H]1c1ccc(-c2ccsc2)cc1	0.598	188	> 3140	0.0318	> 10
COC(=O)[C@@H]1CN(C)CC[C@@H]1c1ccc(-c2nccs2)cc1 (racemic) [listing 2 of 2 here]	–	2	4	–	–
COC(=O)[C@@H]1CN(C)CC[C@@H]1c1ccc(-c2nccs2)cc1 [listing 1 of 2 here]	–	–	–	> 10	> 50
COC(=O)[C@@H]1CN(C)CC[C@@H]1c1ccc(-c2nccs2)cc1 [listing 2 of 2 here]	–	1	5	–	–
